Measurements published in patent publication US12440451B2, “Compositions and methods using an epigenetic inhibitor” (DANA-FARBER CANCER INSTITUTE, INC., priority 2017, dated 2025).

What was measured:
[1] = test system: H3K9-Ac and H3K27-Ac in CD8+ T cells; test: ChIP-qPCR for H3K9ac and H3K27ac at promoter regions of 32 effector function genes; type: cell-based, mouse; conditions: 3 μM, 5 days
Method: Chromatin was extracted from sorted CD8^+ T cells activated with or without RGFP966 for 5 days as described in FIG. 1 and Example 1 above, and chromatin immunoprecipitation (ChIP) was performed for H3K9ac and H3K27 markers.
Immunoprecipitated chromatin was analyzed using quantitative real-time PCR (qPCR) with primer probes for the promoter regions of a custom set of 32 genes known to be associated with various aspects of CD8^+ T cell effector function (effector cytokines, cytotoxicity, regulatory transcription factors, as well as positive and negative controls for data quality control). […] Histogram bars are presented in pairs for each marker, with the left hand bar of each pair (gray) representing data from untreated CD8^+ T cells and the right hand bar of each pair (black) representing data from CD8^+ T cells treated with 3 μM RGF966.

H3K27-ac in CD8+ T cells = test: H3K27-ac ChIP-sequencing of activated CD8+ T cells; type: cell-based, mouse; conditions: days 5 and 7 post-activation
Method: ChIP-sequencing was then performed to survey the genomic landscape of H3K27 acetylation in the absence or the presence of HDAC3 activity on days 5 and 7 post-activation using the same in vitro activation co-culture system as in as described in FIG. 1 and Example 1 above.
FIGS. 9C-9H show H3K27-ac ChIP-sequence tracks, from top to bottom: naïve CD8^+ T cells (day 0): control-treated cells, day 5 post-activation: RGFP966-treated cells, day 5 post-activation: control-treated cells, day 7 post-activation: RGFP966-treated cells, day 7 post-activation. Arrows under gene names indicate direction of transcription. Tracks were visualized with the IGV genome browser (Broad Institute, MA).

OT-I+ CD8+ T cells = test: immunoblot time course of sorted CD8+ T cells after activation; type: cell-based, mouse; conditions: 3 μM
Method: Analysis was first made on expression of HDAC3 and its known binding partners, global histone acetylation levels, and known regulatory transcription factors of CD8^+ T cell effector function across a time course of T cell activation in the absence or presence of the HDAC3 inhibitor RGFP966.
To do so, OT-I^+ CD8^+ T cells were activated in vitro for 7 days, as described in FIG. 1 and Example 1 above. Activated cells received either 0 μM or 3 μM of HDAC3 inhibitor RGF966. Sorted CD8^+ T cells from the in vitro co-cultures were then assessed for HDAC3 and various markers by immunoblot at 2, 22, 72, 120, and 168 hours after activation (see immunoblot of FIG. 9A). The markers assessed included: NCOR1 and NCOR2 (part of the HDAC3/NCOR complex): BCL-6, T-BET, and BLIMP-1 (markers of the BCL-6-5-bet pathway): GAPDH and LAMIN BI (protein loading controls): acetylated residues H3K9 and H3K27, and histone H3 (markers of histone H3 acetylation).

B16-Ova cells = test: in vitro 51Cr release cytotoxicity assay of activated OT-I+ CD8+ T cells against target cells; type: cell-based, mouse; conditions: for specific lysis of cells expressing target antigen: 4 hours co-incubation, FIG. 4A
Method: In order to functionally assess the phenotype of OT-I^+ CD8^+ T cells activated in the presence of RGFP966, the ability of the activated T cells to kill B16 melanoma tumor cell targets expressing the cognate SIINFEKL (SEQ ID NO: 1) antigen of the OT-I TCR was assayed. The B16-Ova cells were engineered to express chicken ovalbumin in their cytosol, and express SIINFEKL (SEQ ID NO: 1) on Kb MHC I molecules when treated with IFN-γ. In preparation for the cytotoxicity assay, B16-Ova cells were treated with 10 ng/ml IFN-γ for 48 hours prior to harvest and loading with ^51Cr radionuclide. After radiolabeling, B16-Ova cells were seeded into 96-well plates (5×10^3/well) and allowed to adhere for 1 hour prior to addition of CD8^+ effector cells. OT-I^+ CD8^+ T cells were activated as described above using SIINFEKL-pulsed BMDCs in the presence of 10 μM, 1 μM, or 0 μM RGFP966. After 7 days of activation, T cells were harvested, washed to remove the drug, and counted. OT-I^+ CD8^+ effector cells were added to the assay plates containing B16-Ova target cells at the indicated ratios: there was no drug present during the cytotoxicity assay. Specific killing of targets was assessed by measurement of 51Cr release into the culture supernatant 4 hours after co-culture. To verify that genetic ablation of HDAC3 functionally recapitulated the augmented cytotoxic effector phenotype of HDAC3 inhibition using RGFP966, HDAC3-KO T cells were generated from OT-I^+ CD8^+ Cas9^+ T cells as described above, and compared with RGFP966-treated T cells from the same batch in an in vitro cytotoxicity assay.

human CD8+ T cells = test: activation of human CD8+ T cells with anti-CD3 and anti-CD28, flow cytometry; type: cell-based; conditions: 10 μM; 7 days
Method: Further investigation was conducted to discover whether the augmented cytotoxic effector phenotype observed in mouse CD8^+ T cells post-activation with HDAC3 inhibition was also true in human CD8^+ T cells. Total CD8^+ T cells were negatively isolated from the peripheral blood of healthy human donors, and activated in vitro using plate-bound anti-CD3 and soluble anti-CD28 antibodies in the presence or absence of 0 μM (vehicle control) or 10 μM RGFP966. Following 7 days of in vitro activation, without additional IL-2 supplementation, CD8^+ T cells were analyzed by flow cytometry for expression of markers associated with T cell activation, effector cytokines, and cytotoxicity. The results are summarized in the graphs of FIG. 13A.

other HDACs = conditions: reported; cited from earlier work

SMILES: Nc1cc(F)ccc1NC(=O)/C=C/c1cnn(C/C=C/c2ccccc2)c1 [RGFP966]
- histone acetylation at GZMB, FASL, TBX21, PRDM1 and ID2 [1]: most significant changes in histone acetylation
- H3K9 and H3K27 acetylation at promoters of IFN-γ, TNF-α and IL-2 ([1]; not always significant): generally had increased H3K9 and H3K27 acetylation
- H3K27-ac at GzmB, Fasl, ID2, PRDM1 and TBX21 (H3K27-ac in CD8+ T cells): increased H3K27-ac
- H3K27-ac at RUNX3 (H3K27-ac in CD8+ T cells): increased H3K27-ac
- H3K27ac at loci of effector cytokines, EOMES and BCL6 (H3K27-ac in CD8+ T cells; data not shown): no significant changes
- levels of BCL-6 (OT-I+ CD8+ T cells): no significant changes
- levels of BLIMP-1 (PRDM1) (OT-I+ CD8+ T cells): no significant changes
- global histone acetylation at H3K9 (OT-I+ CD8+ T cells; after 72 hours post-activation): persistently high after 72 hours
- HDAC3 protein level (OT-I+ CD8+ T cells; immunoblot 2-168 hours): does not result in loss of HDAC3 protein
- expression of T-BET (TBX21) (OT-I+ CD8+ T cells; relative to control-treated cells): increased in the drug-treated cells relative to control-treated cells
- NCOR2 level (OT-I+ CD8+ T cells; starting at 120 hours post-activation): almost completely absent
- killing of cognate antigen-expressing target cells (B16-Ova cells; T cells activated in the presence of the drug, dose-dependent): kill cognate antigen-expressing target cells more effectively than untreated cells
- cytotoxicity compared with control treatment (B16-Ova cells; T cells activated with 1 μM): modest but non-significant increase in cytotoxicity
- specific lysis of cells expressing target antigen (B16-Ova cells; T cells activated with 1 μM): about 45%
- specific lysis of cells expressing target antigen (B16-Ova cells; T cells activated with 10 μM): ~70%
- expression of CD25 (human CD8+ T cells): upregulation
- expression of CD44 (human CD8+ T cells): upregulation
- expression of granzyme B (human CD8+ T cells): upregulation
- concentration range at which other HDACs are not inhibited (other HDACs): < 15 µM
